Experiment [1] concerns influenza A and B viruses. The format is cell-based.
Experiment [2] has as its target NA from influenza PR8 virus (Influenza A virus, UniProt P03468). The experiment in a line: biochemical.

NA from influenza PR8 virus, sequence (P03468 whole entry, looked up): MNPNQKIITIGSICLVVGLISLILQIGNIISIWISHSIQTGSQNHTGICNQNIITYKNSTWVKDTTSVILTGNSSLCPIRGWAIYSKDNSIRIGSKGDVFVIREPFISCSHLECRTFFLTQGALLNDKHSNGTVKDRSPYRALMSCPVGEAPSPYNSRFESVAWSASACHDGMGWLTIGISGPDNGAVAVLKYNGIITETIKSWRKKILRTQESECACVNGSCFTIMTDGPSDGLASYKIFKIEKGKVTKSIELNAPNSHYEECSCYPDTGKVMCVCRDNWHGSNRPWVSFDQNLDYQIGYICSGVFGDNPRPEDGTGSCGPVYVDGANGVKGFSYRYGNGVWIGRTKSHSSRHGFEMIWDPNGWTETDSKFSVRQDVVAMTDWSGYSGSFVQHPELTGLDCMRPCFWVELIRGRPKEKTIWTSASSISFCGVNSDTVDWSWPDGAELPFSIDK

What is called IC50 is the concentration that gives 50% inhibition. Lower therefore signals greater potency in that assay. In the case of `O=C(O)C1=CC(=C(c2ccc(O)c(C(=O)O)c2)c2ccc(O)c(C(=O)O)c2)C=CC1=O` [ATA, Aurintricarboxylic acid], the “replication after pre-incubation of virus with ATA” value in experiment [1] is “inhibited replication of both WSN and H274Y viruses in a dose-responsive fashion”. This compound also showed an IC50 in experiment [2] of 17 µM.

Source of the values: publication PMC2792043 (PLoS ONE, 2009).
